Experimental data as given in ChEMBL document CHEMBL3739345, “Design and synthesis of potent and selective inhibitors of BRD7 and BRD9 bromodomains” (Medchemcomm, 2015).

How the values were obtained:
[1] = target: T1, Bromodomain-containing protein 4 (Homo sapiens, UniProt O60885); test: Binding affinity to human BRD4 assessed as change in melting temperature at 10 uM by differential scanning fluorimetry
[2] = target: T2, Peregrin (Homo sapiens) (UniProt P55201); test: Binding affinity to human BRPF1B assessed as change in melting temperature at 10 uM by differential scanning fluorimetry
T2 sequence (whole entry): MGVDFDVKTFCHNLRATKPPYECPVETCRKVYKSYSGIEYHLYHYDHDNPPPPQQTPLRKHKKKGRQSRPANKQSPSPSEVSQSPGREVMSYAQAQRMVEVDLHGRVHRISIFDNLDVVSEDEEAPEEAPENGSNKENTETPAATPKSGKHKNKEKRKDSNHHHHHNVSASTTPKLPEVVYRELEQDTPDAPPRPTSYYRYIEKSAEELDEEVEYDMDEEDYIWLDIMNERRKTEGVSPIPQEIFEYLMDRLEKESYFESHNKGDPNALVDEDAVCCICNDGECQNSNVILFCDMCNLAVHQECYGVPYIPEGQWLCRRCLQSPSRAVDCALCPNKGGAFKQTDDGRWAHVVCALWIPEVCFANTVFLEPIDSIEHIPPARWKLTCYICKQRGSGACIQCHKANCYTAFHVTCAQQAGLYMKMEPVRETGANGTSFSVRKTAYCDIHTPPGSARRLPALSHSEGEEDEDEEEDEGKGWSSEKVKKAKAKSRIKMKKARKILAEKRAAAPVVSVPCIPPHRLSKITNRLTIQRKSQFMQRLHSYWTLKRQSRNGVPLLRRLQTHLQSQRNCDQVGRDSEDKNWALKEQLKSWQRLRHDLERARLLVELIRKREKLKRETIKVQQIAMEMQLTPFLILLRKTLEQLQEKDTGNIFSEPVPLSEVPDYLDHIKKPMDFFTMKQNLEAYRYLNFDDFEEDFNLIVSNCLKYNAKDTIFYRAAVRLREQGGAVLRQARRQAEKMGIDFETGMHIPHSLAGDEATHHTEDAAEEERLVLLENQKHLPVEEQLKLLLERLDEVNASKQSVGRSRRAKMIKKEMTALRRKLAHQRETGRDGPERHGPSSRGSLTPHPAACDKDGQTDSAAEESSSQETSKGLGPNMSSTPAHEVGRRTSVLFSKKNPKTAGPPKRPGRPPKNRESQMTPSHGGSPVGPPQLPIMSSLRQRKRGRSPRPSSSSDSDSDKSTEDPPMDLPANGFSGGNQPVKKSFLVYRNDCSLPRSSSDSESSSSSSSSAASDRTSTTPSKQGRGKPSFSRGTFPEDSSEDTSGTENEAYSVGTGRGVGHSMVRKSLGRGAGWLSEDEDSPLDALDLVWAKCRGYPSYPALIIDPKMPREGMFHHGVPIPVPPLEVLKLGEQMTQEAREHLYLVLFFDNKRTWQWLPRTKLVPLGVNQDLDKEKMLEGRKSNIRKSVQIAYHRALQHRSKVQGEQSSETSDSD

[3] = target: T3, Bromodomain-containing protein 9 (Homo sapiens) (UniProt Q9H8M2); test: Binding affinity to human BRD9 assessed as change in melting temperature at 10 uM by differential scanning fluorimetry
T3 sequence (whole entry): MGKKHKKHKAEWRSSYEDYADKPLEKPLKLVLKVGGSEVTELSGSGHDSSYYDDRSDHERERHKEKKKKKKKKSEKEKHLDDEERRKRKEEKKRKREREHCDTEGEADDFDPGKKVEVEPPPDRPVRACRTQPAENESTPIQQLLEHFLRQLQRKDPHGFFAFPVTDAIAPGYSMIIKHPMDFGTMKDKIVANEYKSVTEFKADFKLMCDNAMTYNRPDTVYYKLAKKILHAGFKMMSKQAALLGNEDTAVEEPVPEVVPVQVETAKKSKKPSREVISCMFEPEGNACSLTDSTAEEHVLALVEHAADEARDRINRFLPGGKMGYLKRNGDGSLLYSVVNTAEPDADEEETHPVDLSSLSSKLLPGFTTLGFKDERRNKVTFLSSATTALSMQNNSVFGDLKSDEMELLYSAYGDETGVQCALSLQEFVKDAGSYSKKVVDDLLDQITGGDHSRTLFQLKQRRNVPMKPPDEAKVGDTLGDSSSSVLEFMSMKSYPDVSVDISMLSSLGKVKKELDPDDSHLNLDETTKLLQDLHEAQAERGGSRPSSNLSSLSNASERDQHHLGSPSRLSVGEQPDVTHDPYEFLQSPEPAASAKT

[4] = target: Bromodomain adjacent to zinc finger domain protein 2B (Homo sapiens, UniProt Q9UIF8); test: Inhibition of human BAZ2B by alpha screen assay
Chain of Bromodomain adjacent to zinc finger domain protein 2B (Q9UIF8 whole entry, the tested form may be a part): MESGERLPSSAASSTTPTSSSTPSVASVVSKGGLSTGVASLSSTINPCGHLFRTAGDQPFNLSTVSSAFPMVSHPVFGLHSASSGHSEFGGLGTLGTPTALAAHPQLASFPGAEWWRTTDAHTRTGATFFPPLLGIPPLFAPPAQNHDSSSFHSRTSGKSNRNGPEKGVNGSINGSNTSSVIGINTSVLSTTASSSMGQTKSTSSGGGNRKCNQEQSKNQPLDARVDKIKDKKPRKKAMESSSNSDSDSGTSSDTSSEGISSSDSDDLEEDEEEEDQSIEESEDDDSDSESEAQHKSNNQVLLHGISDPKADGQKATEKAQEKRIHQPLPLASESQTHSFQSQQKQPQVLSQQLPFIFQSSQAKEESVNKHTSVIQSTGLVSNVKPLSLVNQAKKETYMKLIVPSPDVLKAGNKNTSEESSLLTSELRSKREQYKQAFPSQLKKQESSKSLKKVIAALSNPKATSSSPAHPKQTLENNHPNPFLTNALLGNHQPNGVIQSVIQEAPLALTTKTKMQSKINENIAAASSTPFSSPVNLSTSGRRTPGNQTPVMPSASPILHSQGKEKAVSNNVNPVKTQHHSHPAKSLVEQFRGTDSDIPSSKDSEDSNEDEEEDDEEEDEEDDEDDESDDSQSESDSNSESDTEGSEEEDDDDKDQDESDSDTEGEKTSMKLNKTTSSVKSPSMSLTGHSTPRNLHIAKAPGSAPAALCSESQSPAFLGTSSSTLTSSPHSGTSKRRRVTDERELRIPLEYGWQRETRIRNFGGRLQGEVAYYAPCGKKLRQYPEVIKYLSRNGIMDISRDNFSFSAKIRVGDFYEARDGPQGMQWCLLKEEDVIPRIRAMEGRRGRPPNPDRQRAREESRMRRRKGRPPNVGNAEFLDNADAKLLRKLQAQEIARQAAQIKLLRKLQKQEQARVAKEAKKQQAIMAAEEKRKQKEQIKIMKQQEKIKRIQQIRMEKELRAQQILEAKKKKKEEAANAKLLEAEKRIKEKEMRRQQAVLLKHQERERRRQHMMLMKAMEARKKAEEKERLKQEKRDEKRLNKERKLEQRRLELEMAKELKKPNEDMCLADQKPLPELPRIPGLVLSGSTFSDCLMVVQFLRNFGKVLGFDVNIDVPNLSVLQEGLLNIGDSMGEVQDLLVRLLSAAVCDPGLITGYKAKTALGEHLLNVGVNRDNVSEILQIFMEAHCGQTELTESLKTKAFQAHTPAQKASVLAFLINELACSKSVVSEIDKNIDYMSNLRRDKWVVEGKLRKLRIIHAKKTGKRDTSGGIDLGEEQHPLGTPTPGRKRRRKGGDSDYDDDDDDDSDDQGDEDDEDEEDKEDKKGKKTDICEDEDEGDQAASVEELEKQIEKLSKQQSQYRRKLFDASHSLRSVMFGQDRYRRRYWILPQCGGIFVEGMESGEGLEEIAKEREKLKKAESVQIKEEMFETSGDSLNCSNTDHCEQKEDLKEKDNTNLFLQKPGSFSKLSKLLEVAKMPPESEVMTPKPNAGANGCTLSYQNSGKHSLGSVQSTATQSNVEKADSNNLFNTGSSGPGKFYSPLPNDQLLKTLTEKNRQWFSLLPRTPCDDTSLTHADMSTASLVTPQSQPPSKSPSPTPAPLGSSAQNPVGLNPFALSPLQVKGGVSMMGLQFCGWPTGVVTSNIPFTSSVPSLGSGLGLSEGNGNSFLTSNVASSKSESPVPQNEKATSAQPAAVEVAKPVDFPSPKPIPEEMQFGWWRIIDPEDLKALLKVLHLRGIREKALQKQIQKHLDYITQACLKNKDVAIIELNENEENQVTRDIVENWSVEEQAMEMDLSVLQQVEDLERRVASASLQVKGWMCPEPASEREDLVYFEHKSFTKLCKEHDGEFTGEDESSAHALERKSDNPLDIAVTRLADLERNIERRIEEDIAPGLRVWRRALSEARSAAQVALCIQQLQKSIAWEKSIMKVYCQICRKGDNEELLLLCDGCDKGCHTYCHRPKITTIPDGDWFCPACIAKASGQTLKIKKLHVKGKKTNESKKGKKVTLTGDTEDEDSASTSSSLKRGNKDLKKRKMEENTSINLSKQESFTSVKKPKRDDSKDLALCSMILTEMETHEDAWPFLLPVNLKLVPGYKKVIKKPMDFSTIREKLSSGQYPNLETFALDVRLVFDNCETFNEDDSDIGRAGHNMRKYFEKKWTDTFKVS

[5] = target: T4, Bromodomain-containing protein 9 (Homo sapiens, UniProt Q9H8M2); test: Inhibition of human BRD9 by alpha screen assay
T4 sequence (Q9H8M2 whole entry): T3 sequence (whole entry)

[6] = target: T5, Peregrin (Homo sapiens, UniProt P55201); test: Inhibition of human BRPF1B by alpha screen assay
T5 sequence (P55201 whole entry): T2 sequence (whole entry)

[7] = target: T1, Bromodomain-containing protein 4; test: Inhibition of human BRD4 by alpha screen assay

Row | Compound | ΔTm [1] | ΔTm [2] | ΔTm [3] | IC50 [4] | IC50 [5] | IC50 [6] | IC50 [7]
1 | CC(=O)c1cc(-c2cccc(Cl)n2)c2cc(N3CCOCC3)ccn12 | 0.28 °C | 0.34 °C | 0.81 °C | – | – | – | –
2 | CC(=O)c1cc(-c2ccccn2)c2cc(N3CCOCC3)ccn12 | 1.9 °C | 1.3 °C | 5.7 °C | 3160 nM | 501 nM | – | –
3 | CCCOc1ccn2c(C(C)=O)cc(-c3ccccn3)c2c1 | -0.35 °C | 0.32 °C | 1.1 °C | 2510 nM | 2510 nM | – | –
4 | CCCOc1ccn2c(C(C)=O)cc(-c3cccc(Cl)n3)c2c1 | -0.6 °C | 0.18 °C | 0.085 °C | – | – | – | –
5 | CC(=O)c1cc(-c2nc3ccccc3s2)c2cc(N3CCOCC3)ccn12 | 0.55 °C | 0.04 °C | -0.3 °C | – | – | – | –
6 | CN1CCN(c2ccn3c(C(=O)C4CC4)cc(-c4cccc5nccn45)c3c2)CC1 | -0.65 °C | 0.085 °C | 0.76 °C | – | – | – | –
7 | CC(=O)c1cc(-c2cccc3nccn23)c2cc(N3CCNCC3)ccn12 | 2.6 °C | 2.3 °C | 5.1 °C | – | – | – | –
8 | CC(=O)c1cc(-c2ccccn2)c2cc(N3CCNCC3)ccn12 | 4 °C | 1.7 °C | 5.7 °C | – | – | – | –
9 | CC(=O)c1cc(-c2cccc3nccn23)c2cc(N3CCN(C)CC3)ccn12 | 4.1 °C | 3.5 °C | 7.5 °C | – | – | ≤ 1000 nM | ≤ 1000 nM
10 | CC(=O)c1cc(-c2ncccc2F)c2cc(N3CCOCC3)ccn12 | 0.41 °C | 0.71 °C | 1.3 °C | – | – | – | –
11 | CN1CCN(c2ccn3c(C(=O)C(F)(F)F)cc(-c4cccc5nccn45)c3c2)CC1 | -0.7 °C | 0.26 °C | 0.3 °C | – | – | – | –
12 | CC(=O)c1cc(-c2ccc(Cl)cn2)c2cc(N3CCOCC3)ccn12 | -0.39 °C | 0.22 °C | -0.23 °C | – | – | – | –
13 | CCC(=O)c1cc(-c2cccc3nccn23)c2cc(N3CCN(C)CC3)ccn12 | 0.51 °C | 0.15 °C | 1.2 °C | – | – | – | –
14 | CC(=O)c1cc(-c2ncc(C)cc2F)c2cc(N3CCOCC3)ccn12 | -0.42 °C | 0.48 °C | -0.28 °C | – | – | – | –
15 | COc1cccc(-c2cc(C(C)=O)n3ccc(N4CCOCC4)cc23)n1 | 0.82 °C | 0.53 °C | 1.3 °C | – | – | – | –
16 | CCCOc1ccn2c(C(C)=O)cc(-c3cc(C(=O)OC)ccn3)c2c1 | -0.24 °C | 0.09 °C | -0.03 °C | – | – | – | –
17 | O=C(c1cc(-c2cccc3nccn23)c2cc(N3CCOCC3)ccn12)C(F)(F)F | -0.4 °C | 0.2 °C | 0.26 °C | – | – | – | –
18 | COC(=O)c1ccnc(-c2cc(C(C)=O)n3ccc(N4CCOCC4)cc23)c1 | 0.075 °C | 0.04 °C | 0.35 °C | – | – | – | –
19 | CC(=O)c1cc(-c2ncccn2)c2cc(N3CCOCC3)ccn12 | 0.43 °C | 0.29 °C | 0.035 °C | – | – | – | –
20 | CC(=O)c1cc(-c2cccc(C)n2)c2cc(N3CCOCC3)ccn12 | 1.2 °C | 0.65 °C | 4.2 °C | 15800 nM | 501 nM | – | –
21 | CCCCC(=O)c1cc(-c2cccc3nccn23)c2cc(N3CCN(C)CC3)ccn12 | -0.78 °C | 0.5 °C | 0.27 °C | – | – | – | –
22 | CC(=O)c1cc(-c2ccc(C(F)(F)F)cn2)c2cc(N3CCOCC3)ccn12 | -4 °C | 2.5 °C | -1.1 °C | – | – | – | –
23 | CC(C)C(=O)c1cc(-c2cccc3nccn23)c2cc(N3CCN(C)CC3)ccn12 | 0.19 °C | 0.71 °C | 1 °C | – | – | – | –
24 | CCC(=O)c1cc(-c2cccc3nccn23)c2cc(N3CCOCC3)ccn12 | 0.98 °C | 0.2 °C | 3 °C | – | – | – | –
25 | CC(=O)c1cc(-c2cc(C(=O)O)ccn2)c2cc(N3CCOCC3)ccn12 | -0.24 °C | 0.01 °C | -0.06 °C | – | – | – | –
